What was measured:
Chymotrypsinogen B [1] = biological target: T1, Chymotrypsinogen B (Homo sapiens, UniProt P17538); assay: Reversible inhibitory activity toward alpha-chymotrypsin (5 nM concentration) at a pH of 7.8 by progress curve method.
Chymotrypsinogen B [2] = biological target: T1, Chymotrypsinogen B
Chymotrypsinogen B [3] = biological target: T1, Chymotrypsinogen B; assay: Irreversible inhibitory activity toward alpha-chymotrypsin (1.6 uM concentration) at a pH of 7.8 by incubation method. reversible competitive inactivation
Chymotrypsinogen B [4] = biological target: T1, Chymotrypsinogen B; assay: Time dependent loss of inhibitory activity toward alpha-chymotrypsin (1.6 uM concentration) at a pH of 7.8 by incubation method; no inactivation observed.
Chymotrypsinogen B [5] = biological target: T1, Chymotrypsinogen B; assay: Irreversible inhibitory activity toward alpha-chymotrypsin (1.6 uM concentration) at a pH of 7.8 by incubation method.
Chymotrypsinogen B [6] = biological target: T1, Chymotrypsinogen B; assay: Reversible inhibitory activity toward alpha-chymotrypsin (5 nM concentration) at a pH of 7.8 by progress curve method; no inactivation observed.
Chymotrypsinogen B [7] = biological target: T1, Chymotrypsinogen B; assay: Reversible inhibitory activity toward alpha-chymotrypsin (5 nM concentration) at a pH of 7.8 by progress curve method.; no inactivation observed.
Chymotrypsinogen B [8] = biological target: T1, Chymotrypsinogen B; remark: listed apart in the source

T1 sequence (P17538 34-164 limits assumed, other chains not shown): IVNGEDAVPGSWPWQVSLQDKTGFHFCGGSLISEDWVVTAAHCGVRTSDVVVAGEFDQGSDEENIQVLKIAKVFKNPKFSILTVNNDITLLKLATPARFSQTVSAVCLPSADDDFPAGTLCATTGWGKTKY
T1 sequence (P17538 167-263 limits assumed, other chains not shown): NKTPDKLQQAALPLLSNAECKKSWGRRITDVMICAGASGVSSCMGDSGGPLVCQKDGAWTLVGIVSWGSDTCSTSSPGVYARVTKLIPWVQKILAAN

Row | Compound | Ki (Chymotrypsinogen B [1]) [mM] | [I] (Chymotrypsinogen B [3]) [mM] | K obs / 1 (Chymotrypsinogen B [4]) | also measured
1 | COC(=O)C(F)[C@H](Cc1ccccc1)NC(C)=O (stereo in doubt; syn) [listing 1 of 2 here] | 19.1 | – | – | –
2 | COC(=O)C(F)(F)[C@H](Cc1ccccc1)NC(C)=O | 0.034 | 6.86 | – | K obs / 1 (Chymotrypsinogen B [2]): No inactivation
3 | C=CC(F)[C@H](Cc1ccccc1)NC(C)=O (some centres not stated) | – | – | No inactivation | [I] (Chymotrypsinogen B [5]): 9.73 mM; Ki (Chymotrypsinogen B [6]): No inactivation
4 | CC(=O)N[C@@H](Cc1ccccc1)C(C)(F)F | – | – | No inactivation | Ki (Chymotrypsinogen B [7]): No inactivation; [I] (Chymotrypsinogen B [5]): 4.85 mM
5 | C=CC(F)(F)[C@H](Cc1ccccc1)NC(C)=O | 0.46 | – | – | [I] (Chymotrypsinogen B [8]): 8.7 mM

The next lines start with results.

Row | Ki (Chymotrypsinogen B [1]) [mM] | [I] (Chymotrypsinogen B [3]) [mM] | K obs / 1 (Chymotrypsinogen B [4]) | Compound | also measured
6 | – | 4.58 | No inactivation | COC(=O)C(F)[C@H](Cc1ccccc1)NC(C)=O (stereo in doubt; syn) [listing 2 of 2 here] | –
7 | – | 6.25 | No inactivation | COC(=O)C(F)[C@H](Cc1ccccc1)NC(C)=O (stereo in doubt; anti) [listing 1 of 2 here] | –
8 | 6.44 | – | – | COC(=O)C(F)[C@H](Cc1ccccc1)NC(C)=O (stereo in doubt; anti) [listing 2 of 2 here] | –

— ChEMBL document CHEMBL1159164, “Inactivation of serine protease, -chymotrypsin by fluorinated phenylalanine analogues” (Bioorg Med Chem Lett, 1996)
